Assay results from paper PMC9154192 (PLoS Biology, 2022).
“And” between values parts separate entries of the source, which are not always exact repeats. Identical values can stand only once. Like-named read-outs stand apart in the source and are kept apart here.

Columns and labels:
XDR M. tuberculosis [1] = format: cell-based, Mycobacterium tuberculosis
XDR M. tuberculosis [2] = test: Luminescence-based microbial cell viability assay; design: species or system Mycobacterium tuberculosis
[3] = Acute oral toxicity test in mice; format: in vivo, BALB/c mice; conditions: single oral, 5 mice; for Deaths of mice, Days after dosing 0: day 0; for Deaths of mice, Days after dosing 1: day 1; for Deaths of mice, Days after dosing 2: day 2; for Deaths of mice, Days after dosing 3: day 3; for Deaths of mice, Days after dosing 4: day 4; for Deaths of mice, Days after dosing 5: day 5; for Deaths of mice, Days after dosing 6: day 6; for Deaths of mice, Days after dosing 7: day 7; for Deaths of mice, Days after dosing 8: day 8; for Deaths of mice, Days after dosing 9: day 9; for Deaths of mice, Days after dosing 10: day 10; for Deaths of mice, Days after dosing 11: day 11; for Deaths of mice, Days after dosing 12: day 12; for Deaths of mice, Days after dosing 13: day 13; for Deaths of mice, Days after dosing 14: day 14
Description: This experiment was conducted in a toxicity test at Soonchunhyang University's Animal Biological Safety Level 2 (ABSL-2) facility. The study protocol was reviewed and approved by Soonchunhyang University Animal Ethics Committee. Six-week-old female BALB/c were purchased from Koatech (Pyeongtaek, Korea) and five mice per group were tested. Drugs were orally administered once using a zonde and observed for two weeks. Corn oil (Sigma, USA) was used as the vehicle.

M. tuberculosis H37Rv [4] = format: cell-based, Mycobacterium tuberculosis; conditions: for RFU/200 μl (replicates1-3), single values / RFU/ml (×104) / RFU/200 μl (average): Fig 2A
M. tuberculosis H37Rv [5] = format: in vivo, BALB/c mice; conditions: for Efficacy in BALB/C mouse model of pulmonary tuberculosis, Average: Fig 4A
[6] = format: in vivo, Crl:CD SD rats; conditions: single oral dose up to 2,000 mg/kg, SD rats, 2 weeks
Description: Toxicity studies were conducted at Biotoxtech (Korea) under review and approval from IACUC (170842, 180144, 170889) of Biotoxtech. All animals used in the toxicity test were purchased from OrientBio (Korea).
For acute toxicity study with a single oral administration, 6-week-old Crl:CD SD rats were used. For PP1S, a total of 8 groups (n = 4 rats/group) were used (0, 500, 1,000, and 2,000 mg/kg for females and males, respectively). For PP2S, a total of 4 groups (n = 5 rats/group) were used (0 and 2,000 mg/kg for females and males, respectively). […] Corn oil (Sigma, USA) was used as the vehicle. Control animals were treated only with the same volume of the vehicle.

COC(=O)[C@@H]1CCC(=O)N1Cc1cc2ccc(OC)cc2c2cc(OC)c(OC)cc12 [PP1S, (S)-N-[(2,3,6-Trimethoxy-10-phenanthryl)methyl]-pyroglutamic acid methyl ester]
growth of M. tuberculosis in macrophages (CFU) (XDR M. tuberculosis [1]): significantly inhibited the growth
RLU/50ul (replicates1-3), single values (XDR M. tuberculosis [2]): 370 RLU/50ul (2×) and 430 RLU/50ul and 270 RLU/50ul and 260 RLU/50ul and 320 RLU/50ul and 360 RLU/50ul and 340 RLU/50ul and 390 RLU/50ul and 420 RLU/50ul and 450 RLU/50ul and 590 RLU/50ul and 610 RLU/50ul and 670 RLU/50ul and 570 RLU/50ul and 550 RLU/50ul (2×) and 460 RLU/50ul and 440 RLU/50ul and 630 RLU/50ul and 790 RLU/50ul and 540 RLU/50ul and 580 RLU/50ul and 840 RLU/50ul and 860 RLU/50ul and 750 RLU/50ul and 640 RLU/50ul
RLU/ml (×100) (XDR M. tuberculosis [2]): 69.1 RLU/ml (×100) and 105.8 RLU/ml (×100) and 137.3 RLU/ml (×100)
concentration with significant antitubercular effect (XDR M. tuberculosis [2]): 1.56 µg/mL and 0.78 µg/mL
Deaths of mice, Days after dosing 0 ([3]; Dose 500 mg/kg): 0
Deaths of mice, Days after dosing 1 ([3]; Dose 500 mg/kg): 0
Deaths of mice, Days after dosing 2 ([3]; Dose 500 mg/kg): 0
Deaths of mice, Days after dosing 3 ([3]; Dose 500 mg/kg): 0
Deaths of mice, Days after dosing 4 ([3]; Dose 500 mg/kg): 0
Deaths of mice, Days after dosing 5 ([3]; Dose 500 mg/kg): 0
Deaths of mice, Days after dosing 6 ([3]; Dose 500 mg/kg): 0
Deaths of mice, Days after dosing 7 ([3]; Dose 500 mg/kg): 0
Deaths of mice, Days after dosing 8 ([3]; Dose 500 mg/kg): 0
Deaths of mice, Days after dosing 9 ([3]; Dose 500 mg/kg): 0
Deaths of mice, Days after dosing 10 ([3]; Dose 500 mg/kg): 0
Deaths of mice, Days after dosing 11 ([3]; Dose 500 mg/kg): 0
Deaths of mice, Days after dosing 12 ([3]; Dose 500 mg/kg): 0
Deaths of mice, Days after dosing 13 ([3]; Dose 500 mg/kg): 0
Deaths of mice, Days after dosing 14 ([3]; Dose 500 mg/kg): 0
Deaths of mice, Days after dosing 0 ([3]; Dose 1000 mg/kg): 0
Deaths of mice, Days after dosing 1 ([3]; Dose 1000 mg/kg): 0
Deaths of mice, Days after dosing 2 ([3]; Dose 1000 mg/kg): 0
Deaths of mice, Days after dosing 3 ([3]; Dose 1000 mg/kg): 0
Deaths of mice, Days after dosing 4 ([3]; Dose 1000 mg/kg): 0
Deaths of mice, Days after dosing 5 ([3]; Dose 1000 mg/kg): 0
Deaths of mice, Days after dosing 6 ([3]; Dose 1000 mg/kg): 0
Deaths of mice, Days after dosing 7 ([3]; Dose 1000 mg/kg): 0
Deaths of mice, Days after dosing 8 ([3]; Dose 1000 mg/kg): 0
Deaths of mice, Days after dosing 9 ([3]; Dose 1000 mg/kg): 0
Deaths of mice, Days after dosing 10 ([3]; Dose 1000 mg/kg): 0
Deaths of mice, Days after dosing 11 ([3]; Dose 1000 mg/kg): 0
Deaths of mice, Days after dosing 12 ([3]; Dose 1000 mg/kg): 0
Deaths of mice, Days after dosing 13 ([3]; Dose 1000 mg/kg): 0
Deaths of mice, Days after dosing 14 ([3]; Dose 1000 mg/kg): 0
Deaths of mice, Days after dosing 0 ([3]; Dose 2000 mg/kg): 0
Deaths of mice, Days after dosing 1 ([3]; Dose 2000 mg/kg): 0
Deaths of mice, Days after dosing 2 ([3]; Dose 2000 mg/kg): 0
Deaths of mice, Days after dosing 3 ([3]; Dose 2000 mg/kg): 0
Deaths of mice, Days after dosing 4 ([3]; Dose 2000 mg/kg): 0
Deaths of mice, Days after dosing 5 ([3]; Dose 2000 mg/kg): 0
Deaths of mice, Days after dosing 6 ([3]; Dose 2000 mg/kg): 0
Deaths of mice, Days after dosing 7 ([3]; Dose 2000 mg/kg): 0
Deaths of mice, Days after dosing 8 ([3]; Dose 2000 mg/kg): 0
Deaths of mice, Days after dosing 9 ([3]; Dose 2000 mg/kg): 0
Deaths of mice, Days after dosing 10 ([3]; Dose 2000 mg/kg): 0
Deaths of mice, Days after dosing 11 ([3]; Dose 2000 mg/kg): 0
Deaths of mice, Days after dosing 12 ([3]; Dose 2000 mg/kg): 0
Deaths of mice, Days after dosing 13 ([3]; Dose 2000 mg/kg): 0
Deaths of mice, Days after dosing 14 ([3]; Dose 2000 mg/kg): 0
RFU/200 μl (replicates1-3), single values (M. tuberculosis H37Rv [4]; drug conc. 0.39): 59110 RFU/200 μl and 59240 RFU/200 μl and 59440 RFU/200 μl and 58960 RFU/200 μl and 59940 RFU/200 μl and 59150 RFU/200 μl and 59270 RFU/200 μl and 59190 RFU/200 μl and 59120 RFU/200 μl
RFU/ml (×104) (M. tuberculosis H37Rv [4]; drug conc. 0.39): 29.6 RFU/ml (×104)
RFU/200 μl (average) (M. tuberculosis H37Rv [4]; drug conc. 0.39, average of each replicate set): 59447 RFU/200 μl and 59203 RFU/200 μl and 59157 RFU/200 μl
RFU/200 μl (replicates1-3), single values (M. tuberculosis H37Rv [4]; drug conc. 0.78): 53920 RFU/200 μl and 54090 RFU/200 μl and 54550 RFU/200 μl and 54830 RFU/200 μl and 54570 RFU/200 μl and 54130 RFU/200 μl and 54320 RFU/200 μl and 54040 RFU/200 μl and 53950 RFU/200 μl
RFU/ml (×104) (M. tuberculosis H37Rv [4]; drug conc. 0.78): 27.1 RFU/ml (×104)
RFU/200 μl (average) (M. tuberculosis H37Rv [4]; drug conc. 0.78, average of each replicate set): 54650 RFU/200 μl and 54163 RFU/200 μl and 53987 RFU/200 μl
RFU/200 μl (replicates1-3), single values (M. tuberculosis H37Rv [4]; drug conc. 1.56): 29900 RFU/200 μl and 30040 RFU/200 μl and 30750 RFU/200 μl and 30860 RFU/200 μl and 30640 RFU/200 μl and 28310 RFU/200 μl and 28580 RFU/200 μl and 28120 RFU/200 μl and 29920 RFU/200 μl
RFU/ml (×104) (M. tuberculosis H37Rv [4]; drug conc. 1.56): 14.8 RFU/ml (×104)
RFU/200 μl (average) (M. tuberculosis H37Rv [4]; drug conc. 1.56, average of each replicate set): 30750 RFU/200 μl and 28337 RFU/200 μl and 29953 RFU/200 μl
concentration with significant antitubercular effect (M. tuberculosis H37Rv [4]; fluorescence-based assay): 1.56 µg/mL
Efficacy in BALB/C mouse model of pulmonary tuberculosis, Average (M. tuberculosis H37Rv [5]; group dose 15, 6 mice): 4150
Efficacy in BALB/C mouse model of pulmonary tuberculosis, Average (M. tuberculosis H37Rv [5]; group dose 30, 6 mice): 2508
reduction of bacterial load in lungs compared to drug-free group (M. tuberculosis H37Rv [5]; mouse, in vivo): more than 90%
granulomatous lesions in lung sections (HE staining) (M. tuberculosis H37Rv [5]; mouse, in vivo, po): limited number of small granulomatous lesions
change in body weight compared to control group [6]: no significant change
clinical symptoms and death [6]: not observed
